Data from patent US5622962A, “5α-reductase inhibitors” (priority 1995, dated 1997).

Key:
[1] = molecular target: T1, Type I 5α-Reductase from Human Scalp (Homo sapiens, UniProt P18405); assay: Human Type I 5α-reductase assay (conversion of [3H]-testosterone to 5α-reduced metabolites); assay type: biochemical; details: pH 7.5, 0.3 μM; 50 nM [3H]-testosterone, pH 7.5, 25°, 180 min; compared to control reaction mixtures; read-out: percent inhibition of Type I AR
T1 construct: Scalp punch biopsies from graft recipient sites were obtained from human hair transplant procedures; from tissue; host or cells: human scalp punch biopsies (hair transplant graft recipient sites), homogenate, 100,000×g pellet
T1 sequence (P18405 1-259): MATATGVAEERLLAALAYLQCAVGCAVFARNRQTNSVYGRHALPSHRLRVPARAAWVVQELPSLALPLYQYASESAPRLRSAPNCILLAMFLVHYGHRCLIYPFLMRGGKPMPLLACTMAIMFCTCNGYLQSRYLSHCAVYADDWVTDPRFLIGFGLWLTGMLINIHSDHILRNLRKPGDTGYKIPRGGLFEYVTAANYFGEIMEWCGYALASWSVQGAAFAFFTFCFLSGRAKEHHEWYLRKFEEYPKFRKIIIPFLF

[2] = molecular target: T2, Type II 5α-Reductase from Human Prostate (Homo sapiens, UniProt P31213); assay: Human Type II 5α-reductase assay (conversion of [3H]-testosterone to 5α-reduced metabolites); assay type: biochemical; details: sodium acetate pH 5.5, 25°, 30 min, compared to control reaction mixtures; for inhibition at 0.3 µM: pH 5.5, 0.3 μM, read-out: percent inhibition of Type II AR; for percent inhibition of Type II AR: 0.3 μM
T2 construct: The same procedure as above was used for preparations using tissue from prostate surgery; from tissue; host or cells: human prostate tissue from surgery, homogenate, 100,000×g pellet
T2 sequence (P31213 1-254): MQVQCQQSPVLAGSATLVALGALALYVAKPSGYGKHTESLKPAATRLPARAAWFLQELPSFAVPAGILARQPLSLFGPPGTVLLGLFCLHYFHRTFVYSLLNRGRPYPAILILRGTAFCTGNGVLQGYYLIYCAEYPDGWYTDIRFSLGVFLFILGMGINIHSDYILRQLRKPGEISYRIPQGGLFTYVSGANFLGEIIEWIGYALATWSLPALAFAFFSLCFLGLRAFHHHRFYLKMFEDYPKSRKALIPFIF

Structure (SMILES)	inhibition at 0.3 µM [1] [%]	inhibition at 0.3 µM [2] [%]	percent inhibition of Type II AR [2] [%]
CN1C(=O)CC[C@]2(C)c3ccc(-c4ccc(F)c(Cl)c4)cc3CC[C@@H]12 [Example 88, (+)-(4aR)-(10bR)-4-methyl-8-(3-chloro-4-fluorophenyl)-10b-methyl-1,2,3,4,4a,5,6,10b-octahydrobenzo[f]quinolin-3-one]	96	43	
CN(C)c1cccc2c(S(=O)(=O)Nc3cccc(-c4ccc5c(c4)CC[C@H]4N(C)C(=O)CC[C@]54C)c3)cccc12 [Example 91, (+)-(4aR)-(10bR)-4-methyl-8-[3-([5-dimethylamino-1-naphthyl]sulfonylamino)phenyl]-10b-methyl-1,2,3,4,4a,5,6,10b-octahydrobenzo[f]quinolin-3-one]	87	32	
CN1C(=O)CC[C@]2(C)c3ccc(Sc4ccc(Cl)cc4)cc3CC[C@@H]12 [Example 95, (+)-(4aR)-(10bR)-4,10b-dimethyl-8-(4-chlorophenylthio)-1,2,3,4,-4a,5,6,10b-octahydrobenzo[f]quinolin-3-one]	95	35	
Cc1ccc(Sc2ccc3c(c2)CC[C@H]2N(C)C(=O)CC[C@]32C)cc1 [Example 96, (+)-(4aR)-(10bR)-4,10b-dimethyl-8-(4-methylphenylthio)-1,2,3,4,4a,5,6,10b-octahydrobenzo[f]quinolin-3-one]	89	52	
CN1C(=O)CC[C@]2(C)c3ccc(Sc4ccc5ccccc5c4)cc3CC[C@@H]12 [Example 98, (+)-(4aR)-(10bR)-4,10b-dimethyl-8-(2-naphthylthio)-1,2,3,4,-4a,5,6,10b-octahydrobenzo[f]quinolin-3-one]	76	61	44
CN1C(=O)CC[C@]2(C)c3ccc(Sc4cccc(Cl)c4)cc3CC[C@@H]12 [Example 100, (+)-(4aR)-(10bR)-4,10b-dimethyl-8-(3-chlorophenylthio)-1,2,3,4,-4a,5,6,10b-octahydrobenzo[f]quinolin-3-one]	96	51	34
Cc1ccccc1Sc1ccc2c(c1)CC[C@H]1N(C)C(=O)CC[C@]21C [Example 101, (+)-(4aR)-(10bR)-4,10b-dimethyl-8-(2-methylphenylthio)-1,2,3,4,-4a,5,6,10b-octahydrobenzo[f]quinolin-3-one]	75	43	
Cc1cccc(Sc2ccc3c(c2)CC[C@H]2N(C)C(=O)CC[C@]32C)c1 [Example 102, (+)-(4aR)-(10bR)-4,10b-dimethyl-8-(3-methylphenylthio)-1,2,3,4,-4a,5,6,10b-octahydrobenzo[f]quinolin-3-one]	92	61	
CN1C(=O)CC[C@]2(C)c3ccc(Sc4cccc5ccccc45)cc3CC[C@@H]12 [Example 103, (+)-(4aR)-(10bR)-4,10b-dimethyl-8-(1-naphthylthio)-1,2,3,4, -4a,5,6,10b-octahydrobenzo[f]quinolin-3-one]	81	58	
COc1ccccc1Sc1ccc2c(c1)CC[C@H]1N(C)C(=O)CC[C@]21C [Example 104, (+)-(4aR)-(10bR)-4,10b-dimethyl-8-(2-methoxyphenylthio)-1,2,3,4,-4a,5,6,10b-octahydrobenzo[f]quinolin-3-one]	89	41	
COc1ccc(Sc2ccc3c(c2)CC[C@H]2N(C)C(=O)CC[C@]32C)cc1 [Example 105, (+)-(4aR)-(10bR)-4,10b-dimethyl-8-(4-methoxyphenylthio)-1,2,3,4,-4a,5,6,10b-octahydrobenzo[f]quinolin-3-one]	92	33	
CN1C(=O)CC[C@]2(C)c3ccc(Sc4cnc5ccccc5c4)cc3CC[C@@H]12 [Example 106, (4aR)-(10bR)-4,10b-dimethyl-8-(3-quinolinylthio)-1,2,3,4,4a,5,6,10b-octahydrobenzo[f]quinolin-3-one]	73	39	
CN1C(=O)CC[C@]2(C)c3ccc(Sc4ccc5ccccc5n4)cc3CC[C@@H]12 [Example 107, (+)-(4aR)-(10bR)-4,10b-dimethyl-8-(2-quinolinylthio)-1,2,3,4,-4a,5,6,10b-octahydrobenzo[f]quinolin-3-one]	80	83	
CN1C(=O)CC[C@]2(C)c3ccc(Sc4ccccc4F)cc3CC[C@@H]12 [Example 108, (+)-(4aR)-(10bR)-4,10b-dimethyl-8-(2-fluorophenylthio)-1,2,3,4,-4a,5,6,10b-octahydrobenzo[f]quinolin-3-one]	100	29	
CN1C(=O)CC[C@]2(C)c3ccc(Sc4cccc(F)c4)cc3CC[C@@H]12 [Example 109, (+)-(4aR)-(10bR)-4,10b-dimethyl-8-(3-fluorophenylthio)-1,2,3,4,4a,5,6,10b-octahydrobenzo[f]quinolin-3-one]	97	25	
CN1C(=O)CC[C@]2(C)c3ccc(Sc4cccc5cccnc45)cc3CC[C@@H]12 [Example 110, (4aR)-(10bR)-4,10b-dimethyl-8-(8-quinolinylthio)-1,2,3,4,4a,5,6,10b-octahydrobenzo[f]quinolin-3-one]	97	73	
CN1C(=O)CC[C@]2(C)c3ccc(Sc4ccccn4)cc3CC[C@@H]12 [Example 111, (+)-(4aR)-(10bR)-4,10b-dimethyl-8-(2-pyridinylthio)-1,2,3,4,-4a,5,6,10b-octahydrobenzo[f]quinolin-3-one]	44	38	
CN1C(=O)CC[C@]2(C)c3ccc(Sc4nc5ccccc5s4)cc3CC[C@@H]12 [Example 112, (4aR)-(10bR)-4,10b-dimethyl-8-(2-benzothiazolylthio)-1,2,3,4,4a,5,6,10b-octahydrobenzo[f]quinolin-3-one]	64	90	92
CN1C(=O)CC[C@]2(C)c3ccc(Sc4nccc5ccccc45)cc3CC[C@@H]12 [Example 113, (4aR)-(10bR)-4,10b-dimethyl-8-(1-isoquinolinylthio)-1,2,3,4,4a,5,6,10b-octahydrobenzo[f]quinolin-3-one]	70	51	
CN1C(=O)CC[C@]2(C)c3ccc(Sc4cncc5ccccc45)cc3CC[C@@H]12 [Example 114, (4aR)-(10bR)-4,10b-dimethyl-8-(4-isoquinolinylthio)-1,2,3,4,4a,5,6,10b-octahydrobenzo[f]quinolin-3-one]	55	47	
CN1C(=O)CC[C@]2(C)c3ccc(Sc4ccncc4)cc3CC[C@@H]12 [Example 115, (+)-(4aR)-(10bR)-4,10b-dimethyl-8-(4-pyridinylthio)-1,2,3,4,4a,5,6,10b-octahydrobenzo[f]quinolin-3-one]	31	20	
CN1C(=O)C=C[C@]2(C)c3ccc(-c4cccc5ccccc45)cc3CC[C@@H]12 [Example 117, (+)-(4aR)-(10bR)-4-methyl-8-(1-naphthyl)-10b-methyl-3,4,4a,5,6,10b-hexahydrobenzo[f]quinolin-3-one]	46	49	
